Source: PubChem BioAssay (NCI)
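Each compound was tested at five concentrations against cells in 96-well plates for 48 hours. Abbreviation: GI50, concentration required for 50% inhibition of growth. TGI is the concentration that stops growth completely.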

What was measured:
Assay in all cases: DTP human tumour cell line panel, 48 h
[1] = test system: 786-0 renal
[2] = test system: SK-MEL-28 melanoma
[3] = test system: DU-145 prostate
[4] = test system: HT29 colon
[5] = test system: CAKI-1 renal
[6] = test system: OVCAR-4 ovarian
[7] = test system: HOP-62 NSCLC
[8] = test system: MDA-MB-231 breast
[9] = test system: SF-268 CNS
[10] = test system: SF-295 CNS
[11] = test system: MDA-MB-435
[12] = test system: SNB-19 CNS
[13] = test system: SW-620 colon
[14] = test system: HOP-92 NSCLC
[15] = test system: ACHN renal
[16] = test system: UACC-62 melanoma
[17] = test system: HL-60(TB) leukemia
[18] = test system: SF-539 CNS
[19] = test system: NCI/ADR-RES ovarian
[20] = test system: SNB-75 CNS
[21] = test system: SK-MEL-2 melanoma
[22] = test system: NCI-H23 lung
[23] = test system: PC-3 prostate
[24] = test system: OVCAR-3 ovarian
[25] = test system: OVCAR-8 ovarian
[26] = test system: SK-MEL-5 melanoma
[27] = test system: UO-31 renal
[28] = test system: U251 CNS
[29] = test system: A549 NSCLC
[30] = test system: SK-OV-3 ovarian
[31] = test system: SR leukemia
[32] = test system: CCRF-CEM leukemia
[33] = test system: MOLT-4 leukemia
[34] = test system: MALME-3M melanoma
[35] = test system: COLO 205 colon
[36] = test system: EKVX NSCLC
[37] = test system: IGROV1 ovarian
[38] = test system: MDA-MB-468 breast
[39] = test system: NCI-H226 lung
[40] = test system: HCC-2998 colon
[41] = test system: K-562 leukemia
[42] = test system: NCI-H460 lung
[43] = test system: MCF7 breast
[44] = test system: HS 578T breast
[45] = test system: BT-549 breast
[46] = test system: RPMI-8226 leukemia
[47] = test system: HCT-15 colon
[48] = test system: RXF 393 renal
[49] = test system: TK-10 renal
[50] = test system: M14 melanoma
[51] = test system: SN12C renal
[52] = test system: HCT-116 colon
[53] = test system: KM12 colon
[54] = test system: OVCAR-5 ovarian
[55] = test system: UACC-257 melanoma
[56] = test system: A498 renal
[57] = test system: T-47D breast
[58] = test system: LOX IMVI melanoma
[59] = test system: NCI-H522 lung

## Nc1cc(-c2c[nH]c3ccc(F)cc23)nc2cc(-c3c[nH]c4ccccc34)nn12
[1]
  GI50: 1.49 µM
  TGI: 2.93 µM
[2]
  GI50: 2.96 µM
  TGI: 9.82 µM
[3]
  GI50: 4.3 µM
  TGI: 15.3 µM
[4]
  GI50: 2.09 µM
  TGI: 4.72 µM
[5]
  GI50: 2.74 µM
  TGI: 12.4 µM
[6]
  GI50: 4.2 µM
  TGI: 18.9 µM
[7]
  GI50: 4.55 µM
  TGI: 21.8 µM
[8]
  GI50: 2 µM
  TGI: 3.84 µM
[9]
  GI50: 4.15 µM
  TGI: 21.7 µM
[10]
  GI50: 1.86 µM
  TGI: 4.04 µM
[11]
  GI50: 3.67 µM
  TGI: 15.2 µM
[12]
  GI50: 4.59 µM
  TGI: 18.9 µM
[13]
  GI50: 2.11 µM
  TGI: 4.22 µM
[14]
  GI50: 2.42 µM
  TGI: 7.09 µM
[15]
  GI50: 3.22 µM
  TGI: 10.9 µM
[16]
  GI50: 6.03 µM
  TGI: 19.3 µM
[17]
  GI50: 2.18 µM
  TGI: 9.55 µM
[18]
  GI50: 2 µM
  TGI: 4.01 µM
[19]
  GI50: 3.82 µM
  TGI: 19.3 µM
[20]
  GI50: 2.88 µM
  TGI: 14.6 µM
[21]
  GI50: 3.96 µM
  TGI: 15.1 µM
[22]
  GI50: 3.8 µM
  TGI: 17.7 µM
[23]
  GI50: 3.18 µM
  TGI: 12.2 µM
[24]
  GI50: 4.17 µM
  TGI: 16.9 µM
[25]
  GI50: 4.3 µM
  TGI: 26.7 µM
[26]
  GI50: 3.79 µM
  TGI: 13.6 µM
[27]
  GI50: 3.02 µM
  TGI: 12.7 µM
[28]
  GI50: 3.53 µM
  TGI: 14.1 µM
[29]
  GI50: 3.81 µM
  TGI: 20.5 µM
[30]
  GI50: 10.1 µM
  TGI: 23 µM
[31]
  GI50: 2.09 µM
  TGI: 8.42 µM
[32]
  GI50: 2.65 µM
  TGI: 8.01 µM
[33]
  GI50: 2.44 µM
  TGI: 6.87 µM
[34]
  GI50: 2.24 µM
  TGI: 4.79 µM
[35]
  GI50: 1.6 µM
  TGI: 3.2 µM
[36]
  GI50: 3.49 µM
  TGI: 14.9 µM
[37]
  GI50: 4.26 µM
  TGI: 17.6 µM
[38]
  GI50: 1.7 µM
  TGI: 4.3 µM
[39]
  GI50: 5.57 µM
  TGI: 32.6 µM
[40]
  GI50: 2.02 µM
  TGI: 4.14 µM
[41]
  GI50: 2.15 µM
  TGI: 6.12 µM
[42]
  GI50: 2.27 µM
  TGI: 5.37 µM
[43]
  GI50: 2.54 µM
  TGI: 8.12 µM
[44]
  GI50: 3.73 µM
  TGI: 20.5 µM
[45]
  GI50: 8.6 µM
  TGI: 20.8 µM
[46]
  GI50: 2.64 µM
  TGI: 8.15 µM
[47]
  GI50: 1.71 µM
  TGI: 3.69 µM
[48]
  GI50: 2.19 µM
  TGI: 7.82 µM
[49]
  GI50: 5.54 µM
  TGI: 19.9 µM
[50]
  GI50: 1.98 µM
  TGI: 4.21 µM
[51]
  GI50: 6.94 µM
  TGI: 21.7 µM
[52]
  GI50: 1.91 µM
  TGI: 4.1 µM
[53]
  GI50: 2.35 µM
  TGI: 5.79 µM
[54]
  GI50: 3.3 µM
  TGI: 11.1 µM
[55]
  GI50: 4.28 µM
  TGI: 15.2 µM
[56]
  GI50: 2.8 µM
  TGI: 11.3 µM
[57]
  GI50: 3.54 µM
  TGI: 20.9 µM

## C[C@H]1CN(C(=O)c2ccc3c(NNC(=O)c4ccncn4)nc4cc(F)c(F)cc4n23)CCN1
[1]
  GI50: 0.879 µM
  TGI: 11.4 µM
[2]
  GI50: 2.92 µM
  TGI: > 100 µM
[3]
  GI50: 1.99 µM
  TGI: > 100 µM
[4]
  GI50: 0.495 µM
  TGI: 16 µM
[5]
  GI50: 0.566 µM
  TGI: 27.2 µM
[6]
  GI50: 2.12 µM
  TGI: 40.1 µM
[7]
  GI50: 0.938 µM
  TGI: > 100 µM
[58]
  GI50: 0.88 µM
  TGI: 4.44 µM
[8]
  GI50: 3.42 µM
  TGI: 49.9 µM
[9]
  GI50: 2.17 µM
  TGI: > 100 µM
[10]
  GI50: 0.418 µM
  TGI: 19.1 µM
[11]
  GI50: 4.83 µM
  TGI: > 100 µM
[12]
  GI50: 3.4 µM
  TGI: > 100 µM
[13]
  GI50: 1.98 µM
  TGI: > 100 µM
[14]
  GI50: 0.246 µM
  TGI: 5.56 µM
[15]
  GI50: 0.452 µM
  TGI: 12.2 µM
[16]
  GI50: 1.53 µM
  TGI: 4.56 µM
[17]
  GI50: 1.3 µM
  TGI: 6.27 µM
[18]
  GI50: 2.61 µM
  TGI: 14.5 µM
[19]
  GI50: 1.24 µM
  TGI: 6.73 µM
[21]
  GI50: 2.73 µM
  TGI: 20.1 µM
[22]
  GI50: 2 µM
  TGI: > 100 µM
[23]
  GI50: 1.6 µM
  TGI: 30.6 µM
[24]
  GI50: 3.32 µM
  TGI: 81.1 µM
[59]
  GI50: 2.18 µM
  TGI: 20.3 µM
[25]
  GI50: 1.05 µM
  TGI: 14 µM
[26]
  GI50: 1.55 µM
  TGI: 11.1 µM
[27]
  GI50: 0.284 µM
  TGI: 5.08 µM
[28]
  GI50: 0.892 µM
  TGI: > 100 µM
[29]
  GI50: 0.773 µM
  TGI: 15.6 µM
[30]
  GI50: 1.2 µM
  TGI: 17.2 µM
[31]
  GI50: 0.444 µM
  TGI: 11.3 µM
[32]
  GI50: 1.25 µM
  TGI: 8.74 µM
[33]
  GI50: 1.98 µM
  TGI: 17.2 µM
[34]
  GI50: 2.57 µM
  TGI: 9.98 µM
[35]
  GI50: 2.32 µM
  TGI: 15 µM
[36]
  GI50: 0.871 µM
  TGI: 9.24 µM
[37]
  GI50: 3.29 µM
  TGI: > 100 µM
[38]
  GI50: 1.51 µM
  TGI: 4.54 µM
[39]
  GI50: 1.49 µM
  TGI: 13 µM
[40]
  GI50: 2.14 µM
  TGI: 62.5 µM
[41]
  GI50: 1.97 µM
  TGI: 32.6 µM
[42]
  GI50: 0.492 µM
  TGI: 12.7 µM
[43]
  GI50: 2.75 µM
  TGI: 55.8 µM
[44]
  GI50: 7.64 µM
  TGI: > 100 µM
[45]
  GI50: 4.06 µM
  TGI: 85.8 µM
[46]
  GI50: 2.71 µM
  TGI: > 100 µM
[47]
  GI50: 0.18 µM
  TGI: 20.1 µM
[48]
  GI50: 2.12 µM
  TGI: 12.2 µM
[49]
  GI50: 0.373 µM
  TGI: 16.8 µM
[50]
  GI50: 0.711 µM
  TGI: 4.5 µM
[51]
  GI50: 2.87 µM
  TGI: > 100 µM
[52]
  GI50: 0.568 µM
  TGI: 22.2 µM
[53]
  GI50: 2.29 µM
  TGI: 54 µM
[54]
  GI50: 2.58 µM
  TGI: 44.4 µM
[55]
  GI50: 3.34 µM
  TGI: 20.3 µM
[56]
  GI50: 19.1 µM
  TGI: 34.3 µM
[57]
  GI50: 3.43 µM
  TGI: > 100 µM
